Assay results reported in patent US9422263B2, “Fluoro-substituted 3,5-dicyano-4-(1H-indazol-5-yl)-2,6-dimethyl-1,4-dihydropyridine derivatives and methods of use thereof” (BAYER PHARMA AKTIENGESELLSCHAFT, priority 2009, dated 2016).

Key:
[1] = Pharmacokinetics after intravenous administration of test compounds; type: in vivo, rat; details: for in vivo PK, rat i.v. CLblood: male Wistar rats, total blood clearance; for in vivo PK, rat i.v. Fmax, calc: Fmax,calc=[1−CLblood/Qh]*100, Qh 4.2 L per h per kg
Method: Pharmacokinetics after Intravenous Administration of Test Compounds: Male Wistar rats (Harlan Laboratories) are anesthetized and a catheter is inserted into the jugular vein of the rat. The next day, a defined dose of the test compound is administered as solution by injection into the tail vein. Blood samples are collected through the jugular catheter during the next 24 h (8-11 time points). Blood is centrifuged in heparin-tubes, and each plasma sample is treated with acetonitrile for protein precipitation. After centrifugation, the test compound in the supernatant is quantified using an LC-MS/MS method. The determined plasma concentrations are used for the calculation of pharmacokinetic parameters, such as AUC (area under the plasma concentration vs. time curve), Vss (volume of distribution under steady-state conditions), Cmax (highest test compound concentration observed in plasma following administration), t1/2 (half-life) and CL (total clearance of the test compound from the plasma). For the calculation of the blood clearance, the blood to plasma partitioning is determined by incubation of the test compound in blood of rats. After separation of the plasma by centrifugation, the concentration in the plasma is determined by an LC-MS/MS method. Under the assumption that the test compound is completely absorbed, the theoretically maximum achievable bioavailability Fmax,calc is calculated by the equation Fmax,calc=[1−CLblood/Qh]*100, wherein CLblood is the total blood clearance and Qh is the hepatic blood flow in rat of 4.2 L per h per kg.

[2] = biological target: Recombinant human c-Met protein (Homo sapiens (Human), UniProt P08581); experiment: c-Met receptor tyrosine kinase activity assay (NADH read-out); type: biochemical; details: ATP 30 μM, c-Met 30 nM
Method: c-Met Receptor Tyrosine Kinase Activity Assay (NADH Read-Out):
Recombinant human c-Met protein (Invitrogen, Carlsbad, Calif., USA) is used. As substrate for the kinase reaction the peptide KKKSPGEYVNIEFG (JPT, Germany) is used. For the assay, 1 μL of a 51-fold concentrated solution of the test compound in DMSO is pipetted into a white 384-well microtiter plate (Greiner Bio-One, Frickenhausen, Germany). 25 μL of a solution of c-Met (final concentration 30 nM) and pyruvate kinase/lactate dehydrogenase (Roche Diagnostics, Mannheim, Germany; final concentration 8 mg/L) in assay buffer [3-(N-morpholino)propanesulfonic acid (MOPS), 50 mM, pH 7; MgCl2, 10 mM; bovine serum albumin (BSA), 0.01%; Triton X 100, 0.01%; DTT, 2 mM] are added, and the mixture is incubated for 5 min at room temperature. Then, the kinase reaction is started by the addition of 25 μL of a solution of adenosine triphosphate (ATP, final concentration 30 μM), substrate (final concentration 100 μM), nicotinamide adenine dinucleo-tide (NADH, final concentration 50 μM) and dithiothreitol (DTT, final concentration 2 mM) in assay buffer, and the resulting mixture is incubated for a reaction time of 100 min at 32° C.
Subsequently, the amount of phosphorylated substrate is evaluated by measurement of the decrease of NADH fluorescence. Therefore, the fluorescence emissions at 465 nm after excitation at 340 nm is measured in a fluorescence reader, e.g. Tecan Ultra (Tecan, Männedorf, Switzerland). The data are normalised (enzyme reaction without inhibitor=0% inhibition; all other assay components but no enzyme=100% inhibition).

Chain of Recombinant human c-Met protein (P08581 25-1390): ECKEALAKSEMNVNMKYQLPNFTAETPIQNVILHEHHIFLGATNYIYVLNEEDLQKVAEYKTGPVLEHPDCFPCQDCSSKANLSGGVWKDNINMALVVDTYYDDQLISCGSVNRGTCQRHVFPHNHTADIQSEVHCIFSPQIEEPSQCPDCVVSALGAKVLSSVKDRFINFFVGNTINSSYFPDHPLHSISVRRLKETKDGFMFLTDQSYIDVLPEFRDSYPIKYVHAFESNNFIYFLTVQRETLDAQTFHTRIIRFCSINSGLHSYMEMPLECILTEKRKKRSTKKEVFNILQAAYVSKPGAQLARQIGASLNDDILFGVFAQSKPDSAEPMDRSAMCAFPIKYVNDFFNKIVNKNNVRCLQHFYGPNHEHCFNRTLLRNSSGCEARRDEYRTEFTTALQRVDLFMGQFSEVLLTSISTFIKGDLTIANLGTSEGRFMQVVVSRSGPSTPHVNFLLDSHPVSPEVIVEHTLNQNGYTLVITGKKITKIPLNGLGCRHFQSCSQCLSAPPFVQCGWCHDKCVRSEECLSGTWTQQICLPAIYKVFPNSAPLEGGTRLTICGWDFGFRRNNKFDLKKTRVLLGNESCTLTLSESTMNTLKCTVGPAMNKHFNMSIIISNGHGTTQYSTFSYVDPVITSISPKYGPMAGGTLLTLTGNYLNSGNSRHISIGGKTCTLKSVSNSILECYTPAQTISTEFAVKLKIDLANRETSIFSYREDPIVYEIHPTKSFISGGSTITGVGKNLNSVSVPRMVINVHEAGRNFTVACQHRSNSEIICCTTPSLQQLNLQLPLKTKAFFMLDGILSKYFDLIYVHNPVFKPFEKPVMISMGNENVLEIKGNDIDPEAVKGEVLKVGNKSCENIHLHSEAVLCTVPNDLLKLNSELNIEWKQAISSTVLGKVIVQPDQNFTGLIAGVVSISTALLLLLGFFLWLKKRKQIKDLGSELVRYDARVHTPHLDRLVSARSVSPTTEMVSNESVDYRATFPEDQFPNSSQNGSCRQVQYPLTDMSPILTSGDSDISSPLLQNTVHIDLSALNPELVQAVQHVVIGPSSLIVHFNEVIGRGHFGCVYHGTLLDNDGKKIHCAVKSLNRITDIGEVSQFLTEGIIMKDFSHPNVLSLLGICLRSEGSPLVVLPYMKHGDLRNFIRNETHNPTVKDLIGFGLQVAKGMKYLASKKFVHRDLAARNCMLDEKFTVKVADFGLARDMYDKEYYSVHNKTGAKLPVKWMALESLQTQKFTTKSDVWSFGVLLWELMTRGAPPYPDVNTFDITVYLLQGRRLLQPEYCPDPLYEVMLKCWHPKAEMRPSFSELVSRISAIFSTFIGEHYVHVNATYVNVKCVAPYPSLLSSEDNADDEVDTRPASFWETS

Compound	in vivo PK, rat i.v. CLblood [1] [L/h/kg]	in vivo PK, rat i.v. Fmax, calc [1] [%]	IC50 [2] [µM]
Cc1n[nH]c2cc(F)c(C3C(C#N)=C(C(F)F)NC(C(F)F)=C3C#N)cc12 [Example 14, 2,6-Bis(difluoromethyl)-4-(6-fluoro-3-methyl-1H-indazol-5-yl)-1,4-dihydropyridine-3,5-dicarbonitrile]	0.28	93	0.026
CC1=C(C#N)C(c2ccc3[nH]nc(C)c3c2)C(C#N)=C(C(F)(F)F)N1 (single isomer, unassigned) [Example 6]	1.68	60	0.012
CC1=C(C#N)C(c2ccc3[nH]nc(C)c3c2)C(C#N)=C(C(F)F)N1 (single isomer, unassigned) [Example 3, 2-(Difluoromethyl)-6-methyl-4-(3-methyl-1H-indazol-5-yl)-1,4-dihydropyridine-3,5-dicarbonitrile]	3.14	25	0.006
